Reference: the supplement of paper PMC10307832

Columns and labels:
Test in all cases: relative viability (nuclei count vs DMSO), 5 days (fraction); higher = more cells survive
[1] = compound: CN(C)CC1=CC(=CC=C1)N=C(C2=CC=CC=C2)C3=C(NC4=C3C=CC(=C4)C(=O)N(C)C)O + Nc1ncn([C@H]2C[C@H](O)[C@@H](CO)O2)c(=O)n1 [Decitabine] (partner 2 µM)
How it was run: (§1)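 Relative viability divides the nuclei count in treated wells by that in vehicle wells. Lung cancer cell lines were seeded in 1536-well plates, dosed by pin tool the next day, and fixed and stained after 5 days in one step with final 0.05% Triton X-100, 1% formaldehyde and 1 ug/ml Hoechst. Dosing was a single drug or a fixed anchor-drug dose plus five library-drug doses (not always all listed) in √10 steps, and values are medians of duplicate plates imaged at 4×.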

[2] = compound: CN(C)CC1=CC(=CC=C1)N=C(C2=CC=CC=C2)C3=C(NC4=C3C=CC(=C4)C(=O)N(C)C)O + Cc1nc(Nc2ncc(C(=O)Nc3c(C)cccc3Cl)s2)cc(N2CCN(CCO)CC2)n1 [Dasatinib] (partner 0.075 µM)
How it was run: as §1

[3] = compound: CN(C)CC1=CC(=CC=C1)N=C(C2=CC=CC=C2)C3=C(NC4=C3C=CC(=C4)C(=O)N(C)C)O + COc1cc2c(Oc3ccc(NC(=O)C4(C(=O)Nc5ccc(F)cc5)CC4)cc3F)ccnc2cc1OCCCN1CCOCC1 [Foretinib] (partner 0.25 µM)
How it was run: as §1

[4] = compound: CN(C)CC1=CC(=CC=C1)N=C(C2=CC=CC=C2)C3=C(NC4=C3C=CC(=C4)C(=O)N(C)C)O + CCNC(=O)c1noc(-c2cc(C(C)C)c(O)cc2O)c1-c1ccc(CN2CCOCC2)cc1 [Luminespib] (partner 0.01 µM)
How it was run: as §1

Row | Cell Line | relative viability ([1]; first compound 0.08 µM) | relative viability ([1]; first compound 0.253 µM) | relative viability ([1]; first compound 0.8 µM) | relative viability ([1]; first compound 2.53 µM) | relative viability ([1]; first compound 8 µM) | relative viability ([2]; first compound 0.08 µM) | relative viability ([2]; first compound 0.253 µM) | relative viability ([2]; first compound 0.8 µM) | relative viability ([2]; first compound 2.53 µM) | relative viability ([2]; first compound 8 µM) | relative viability ([3]; first compound 0.08 µM) | relative viability ([3]; first compound 0.253 µM) | relative viability ([3]; first compound 0.8 µM) | relative viability ([3]; first compound 2.53 µM) | relative viability ([3]; first compound 8 µM) | relative viability ([4]; first compound 0.08 µM) | relative viability ([4]; first compound 0.253 µM) | relative viability ([4]; first compound 0.8 µM) | relative viability ([4]; first compound 2.53 µM) | relative viability ([4]; first compound 8 µM)
1 | NCI-H1734 | 0.526 | 0.491 | 0.455 | 0.564 | 0.493 | 0.473 | 0.46 | 0.441 | 0.394 | 0.39 | 0.765 | 0.839 | 0.819 | 0.771 | 0.807 | 0.206 | 0.168 | 0.164 | 0.25 | 0.174
2 | NCI-H1755 | 0.674 | 0.706 | 0.63 | 0.689 | 0.719 | 0.487 | 0.45 | 0.374 | 0.402 | 0.348 | 0.941 | 0.903 | 0.989 | 0.874 | 0.918 | 0.472 | 0.413 | 0.422 | 0.351 | 0.454
3 | NCI-H1793 | 0.53 | 0.509 | 0.52 | 0.49 | 0.644 | 0.438 | 0.387 | – | 0.425 | 0.411 | 0.745 | 0.66 | – | 0.734 | 0.621 | 0.19 | 0.249 | – | 0.165 | 0.113
4 | NCI-H1915 | 0.251 | 0.274 | 0.271 | 0.255 | 0.247 | 0.365 | 0.369 | 0.318 | 0.323 | 0.292 | 1.03 | 1.06 | 1.13 | 1.12 | 1.05 | 0.745 | 0.745 | 0.811 | 0.836 | 0.667
5 | NCI-H1944 | 0.449 | 0.428 | 0.382 | 0.461 | 0.489 | 0.216 | 0.234 | 0.219 | 0.179 | 0.156 | 0.888 | 0.923 | 0.877 | 0.86 | 0.785 | 0.758 | 0.766 | 0.785 | 0.657 | 0.585
6 | NCI-H1975 | 0.45 | 0.409 | 0.368 | 0.397 | 0.381 | 0.372 | 0.364 | 0.341 | 0.348 | 0.31 | 0.863 | 0.984 | 0.888 | 0.88 | 0.78 | 0.22 | 0.197 | 0.0911 | 0.324 | 0.161
7 | NCI-H1993 | 0.643 | 0.55 | – | 0.617 | 0.687 | 0.505 | 0.602 | 0.512 | 0.607 | 0.729 | 0.721 | 0.811 | 0.81 | 0.824 | 0.935 | 0.817 | 0.796 | 0.748 | 0.939 | 0.924
8 | NCI-H2009 | 0.364 | 0.427 | 0.432 | 0.343 | 0.379 | 0.238 | 0.328 | 0.349 | 0.333 | 0.253 | 1.17 | 1.22 | 1.21 | 1.23 | 1.11 | 1.04 | 0.999 | 1.11 | 0.96 | 1.05
